From ChEMBL document CHEMBL1201862, “PubChem BioAssay data set” (2004)
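Method: 48-hour compound exposure of cells in 96-well plates, five concentrations, linear interpolation of endpoints. GI50: concentration for 50% inhibition of growth.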 Active and inactive are the calls of the source. No stated cut-off is given here; in the data, active = GI50 up to about 1.1 µM and inactive = higher.

Tests used:
Assay in all cases: growth of human tumour cells (NCI), 48 h
[1] = test system: U-251
[2] = test system: SF-295
[3] = test system: CAKI-1
[4] = test system: RXF 393
[5] = test system: HOP-62
[6] = test system: MDA-MB-231
[7] = test system: IGROV-1
[8] = test system: K562
[9] = test system: KM12
[10] = test system: DU-145
[11] = test system: COLO 205
[12] = test system: OVCAR-3
[13] = test system: PC-3
[14] = test system: SNB-19
[15] = test system: MDA-N
[16] = test system: NCI-H226
[17] = test system: SK-MEL-5
[18] = test system: SR
[19] = test system: A498
[20] = test system: HOP-92

| Compound | GI50 [1] | GI50 [2] | GI50 [3] | GI50 [4] | GI50 [5] | GI50 [6] | GI50 [7] | GI50 [8] | GI50 [9] | GI50 [10] | GI50 [11] | GI50 [12] | GI50 [13] | GI50 [14] | GI50 [15] | GI50 [16] | GI50 [17] | GI50 [18] | GI50 [19] | GI50 [20] |
| --- | --- | --- | --- | --- | --- | --- | --- | --- | --- | --- | --- | --- | --- | --- | --- | --- | --- | --- | --- | --- |
| [O-][n+]1onc2c1-c1nonc1CC2 | 31.9 µM (inactive) | > 100 µM (inactive) | 69.3 µM (inactive) | 36.1 µM (inactive) | 28.2 µM (inactive) | 27 µM (inactive) | 38.8 µM (inactive) | 56 µM (inactive) | 45.3 µM (inactive) | 51.2 µM (inactive) | 48.5 µM (inactive) | 10.6 µM (inactive) | 26.5 µM (inactive) | > 100 µM (inactive) | 46.2 µM (inactive) | 36.8 µM (inactive) | 27 µM (inactive) | 1.46 µM (inactive) | 31.7 µM (inactive) | – |
| CCOC(=O)Cn1sc2ncc([N+](=O)[O-])cc2c1=O | – | 18.9 µM (inactive) | – | 20 µM (inactive) | 15.4 µM (inactive) | 15.7 µM (inactive) | 13.2 µM (inactive) | 2.84 µM (inactive) | 18.5 µM (inactive) | > 100 µM (inactive) | 13 µM (inactive) | 16.8 µM (inactive) | 14.8 µM (inactive) | – | 12.4 µM (inactive) | > 100 µM (inactive) | 27.5 µM (inactive) | 4.02 µM (inactive) | > 100 µM (inactive) | 13.3 µM (inactive) |
| CC(=O)c1ccc2c(c1)oc(=O)n2CCN1CCCCC1 | > 100 µM (inactive) | > 100 µM (inactive) | > 100 µM (inactive) | > 100 µM (inactive) | > 100 µM (inactive) | > 100 µM (inactive) | > 100 µM (inactive) | > 100 µM (inactive) | > 100 µM (inactive) | > 100 µM (inactive) | > 100 µM (inactive) | > 100 µM (inactive) | > 100 µM (inactive) | > 100 µM (inactive) | > 100 µM (inactive) | > 100 µM (inactive) | > 100 µM (inactive) | > 100 µM (inactive) | > 100 µM (inactive) | – |
| CC(=O)OCCOCn1cc(C=O)c2ccccc21 | > 100 µM (inactive) | > 100 µM (inactive) | > 100 µM (inactive) | > 100 µM (inactive) | > 100 µM (inactive) | > 100 µM (inactive) | > 100 µM (inactive) | > 100 µM (inactive) | > 100 µM (inactive) | > 100 µM (inactive) | > 100 µM (inactive) | > 100 µM (inactive) | > 100 µM (inactive) | > 100 µM (inactive) | > 100 µM (inactive) | – | 75 µM (inactive) | > 100 µM (inactive) | 1.95 µM (inactive) | > 100 µM (inactive) |
| NNC(=O)CCCCCCCC(=O)O | > 100 µM (inactive) | > 100 µM (inactive) | > 100 µM (inactive) | – | > 100 µM (inactive) | > 100 µM (inactive) | > 100 µM (inactive) | > 100 µM (inactive) | > 100 µM (inactive) | > 100 µM (inactive) | > 100 µM (inactive) | > 100 µM (inactive) | > 100 µM (inactive) | > 100 µM (inactive) | > 100 µM (inactive) | > 100 µM (inactive) | > 100 µM (inactive) | > 100 µM (inactive) | > 100 µM (inactive) | > 100 µM (inactive) |
| CN(C)CCn1c(=O)c2ccc(NCCNCCO)c3c(=O)c4ccccc4n(c1=O)c23 | 0.0468 µM (active) | 0.0469 µM (active) | < 0.0108 µM (active) | – | 0.0287 µM (active) | 0.22 µM (active) | 0.0596 µM (active) | 0.0245 µM (active) | 0.249 µM (active) | 0.0217 µM (active) | 0.0703 µM (active) | 0.288 µM (active) | 0.182 µM (active) | 0.182 µM (active) | 0.328 µM (active) | 0.0348 µM (active) | 0.0716 µM (active) | < 0.01 µM (active) | 0.106 µM (active) | 0.03 µM (active) |
